Key:
[1] = target: T1, SHP2 (Homo sapiens, UniProt Q06124); assay: SHP2 biochemical assay (DiFMUP conversion); settings: 10 pM SHP2, 0.25 μM pIRS1 peptide, 50 μM DiFMUP
T1 sequence (Q06124 1-593): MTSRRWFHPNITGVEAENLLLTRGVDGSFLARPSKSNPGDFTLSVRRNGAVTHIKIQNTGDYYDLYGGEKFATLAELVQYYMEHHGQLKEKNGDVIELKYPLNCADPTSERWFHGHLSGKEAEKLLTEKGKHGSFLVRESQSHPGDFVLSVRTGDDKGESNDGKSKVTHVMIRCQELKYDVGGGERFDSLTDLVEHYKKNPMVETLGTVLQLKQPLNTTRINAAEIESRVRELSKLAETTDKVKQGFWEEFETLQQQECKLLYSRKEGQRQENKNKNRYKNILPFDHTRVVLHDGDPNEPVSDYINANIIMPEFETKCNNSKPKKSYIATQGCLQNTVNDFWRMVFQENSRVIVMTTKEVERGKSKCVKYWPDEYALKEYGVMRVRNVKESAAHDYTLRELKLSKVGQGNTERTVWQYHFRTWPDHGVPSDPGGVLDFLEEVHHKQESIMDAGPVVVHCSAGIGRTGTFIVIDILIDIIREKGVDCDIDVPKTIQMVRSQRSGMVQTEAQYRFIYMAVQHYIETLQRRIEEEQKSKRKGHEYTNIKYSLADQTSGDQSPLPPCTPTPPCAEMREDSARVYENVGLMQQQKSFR
Protocol: (1) SHP2 Biochemical Assay SHP2 Activity was Monitored by Measuring the Conversion of the Surrogate Substrate 6,8-Difluoromethylumbelliferyl Phosphate (DiEMUP) to the Fluorescent Product, 6,8-Difluoromethylumbelliferone (DiFMU).
SHP2 was pre-incubated with test compounds and the activating peptide pIRS1 (H2N-LN(pY) IDLDLV-(PEG) 8-LST(pY)ASINFQK-amide) for 30 min, prior to addition of the 6,8-difluoromethylumbelliferyl phosphate (DiEMUP), (Thermo Fisher D6567). Final assay concentrations were 10 pM SHP2, 0.25 μM pIRS1 peptide, 50 μM DiFMUP, 25 mM Bis-Tris propane, pH 7.0, 150 mM NaCl, 0.05% (v/v) Tween-20, 0.5 mM TCEP and 5% (v/v) DMSO. Rates of reaction were then measured over 30 min by monitoring fluorescence on a BMG Pherastar reader at excitation 360 nm/emission 450 nm. IC50 values were calculated in singlicate from the normalized dose-response plots using four parameter logistic curve fit. The Experiment for each compound was carried out in one time or multiple times, and the IC50 values were shown as a single value (for a compound measured in a single experiment) or an average value (for a compound measured in multiple experiments).

[2] = tested on: 491 cell lines; assay: In vitro cell line screening, both panels overall; assay type: cell-based, human; settings: Total panel, sensitive = maximum inhibition greater than 50% relative to DMSO, max 3 μM Compound 1, 1 μM Compound 9, 120-hour incubation
Protocol: (§1) Cells from human cancer cells lines (from commercial sources such as ATCC or ECCAC) were grown as 3D cultures by seeding cells into round-bottom ultra-low attachment 96-well tissue culture plates (Corning) followed by centrifugation. Cells were allowed to recover for 16-24 hours prior to compound treatment. Compounds or dimethyl sulfoxide (DMSO) were added at various combinations of compound concentrations in a final DMSO concentration of up to 0.5% (v/v). Following a total of 120-hour incubation, CellTiter-Glo 3D Reagent(registered trademark) (Promega) was added. Plates were incubated for 10 minutes with gentle shaking at room temperature to lyse the cells, then incubated for further 40 minutes at room temperature to stabilize luminescence signal. After mixing, the mixture was transferred to a fresh plate and luminescence was determined on EnVision plate reader (Perkin Elmer).
as §1, with “as 2D monolayers” for “as 3D cultures”, “seeding onto flat-bottom” for “seeding cells into round-bottom ultra-low attachment”, “plates (Corning).” for “plates (Corning) followed by centrifugation.”, “CellTiter-Glo reagent(registered” for “CellTiter-Glo 3D Reagent(registered”, “further 10” for “further 40”, “fresh plate,” for “fresh plate”
For both 3D and 2D assays, the combination was tested as matrix of various concentrations of Compound 1 and Compound 9. The maximum concentrations of Compound 1 and Compound 9 used were 3 μM and 1 μM, respectively. Signals were normalized to that of the average of the DMSO control wells. […] For each cell line, the maximum % inhibition values were obtained for Compound 1 alone, Compound 9 alone and the combination of both compounds. The degree of drug interaction (i.e. synergy, additivity or antagonism) was quantified for each cell line by the Bliss independence model using the Synergyfinder R package (Ref: He L. et al. (2018) Methods for High-throughput Drug Combination Screening and Synergy Scoring. In: von Stechow L. (eds) Cancer Systems Biology. Methods in Molecular Biology, vol 1711. Humana Press, New York, N.Y.). For each cell line, a single score metric, the sum of synergy and antagonism across screened drug concentrations (SUM_SYN_ANT) (Ref: Di Veroli G. Y. et al (2016) Bioinformatics 32(18):2866-2868), was calculated. Synergy was defined as a score of 21 or above.

## Cn1nc2ccc(-c3c[nH]c4nc(N5[C@H]6CC[C@@H]5[C@H](N)C6)n(C)c(=O)c34)c(Cl)c2c1Cl [Compound 1, 2-((1R,2R,4S)-2-amino-7-azabicyclo[2.2.1]heptan-7-yl)-5-(3,4-dichloro-2-methyl-2H-indazol-5-yl)-3-methyl-3,7-dihydro-4H-pyrrolo[2,3-d]pyrimidin-4-one]
[1]
  IC50: 2 nM
[2]
  Number of cell lines sensitive: 175
  Number of cell lines sensitive (% of total): (35.6) %
